From patent US20140328930A1, “Pharmaceutical Compositions” (Alpharma Pharmaceuticals, LLC, priority 2007, published 2014)
Where a name gives a salt, the structure may show the parent alone.

How the values were obtained:
[1] = clinical; settings: human, in vivo, 2.4 mg
[2] = single dose 2.4 mg naltrexone, fasted
[3] = cited from earlier work

`O=C1CC[C@@]2(O)[C@H]3Cc4ccc(O)c5c4[C@@]2(CCN3CC2CC2)[C@H]1O5` [Naltrexone HCl Solution] showed a Tmax [1] of 1.13 h, a concentration at 0 h [1] of 0 ng/mL and a concentration at 0.5 h [1] of 0.455 ng/mL. It also gave a concentration at 1 h [1] of 0.629 ng/mL, a concentration at 2 h [1] of 0.465 ng/mL and a concentration at 3 h [1] of 0.286 ng/mL. The concentration at 4 h [1] was 0.182 ng/mL, the concentration at 5 h [1] was 0.133 ng/mL and the concentration at 6 h [1] was 0.0957 ng/mL. It also gave a concentration at 8 h [1] of 0.0518 ng/mL, a concentration at 10 h [1] of 0.0287 ng/mL and a concentration at 12 h [1] of 0.0205 ng/mL. For the same compound, the concentration at 16 h [1] was 0.00996 ng/mL, the concentration at 24 h [1] was 0.00316 ng/mL and the concentration at 36 h [1] was 0.000607 ng/mL. The concentration at 48 h [1] was 0 ng/mL, the concentration at 60 h [1] was 0 ng/mL and the concentration at 72 h [1] was 0 ng/mL. The concentration at 84 h [1] was 0 ng/mL, the concentration at 96 h [1] was 0 ng/mL and the concentration at 120 h [1] was 0 ng/mL. The AUC(0-t) ([1]; Naltrexone AUC0-t, Mean, single dose 2.4 mg naltrexone, fasted) was 2.2 ng·h/mL, the AUC(0-inf) ([1]; Naltrexone AUCinf, Mean, single dose 2.4 mg naltrexone, fasted) was 2.24 ng·h/mL and the Cmax ([1]; Naltrexone Cmax, Mean, single dose 2.4 mg naltrexone, fasted) was 0.689 ng/mL. The AUC(0-inf) ([1]; Naltrexone ln(AUCinf), Geometric Mean, Least Squares Mean of log-transformed values) was 1.99 ng·h/mL, the AUC(0-t) ([1]; Naltrexone ln(AUClast), Geometric Mean, Least Squares Mean of log-transformed values) was 1.95 ng·h/mL and the Cmax ([1]; Naltrexone ln(Cmax), Geometric Mean, Least Squares Mean of log-transformed values) was 0.58 ng/mL. The “Naltrexone Tlast, Mean” value [2] was 20.00 h and the “Naltrexone λz, Mean” value [2] was 0.2013 h⁻¹.
In the case of `O=C1CC[C@@]2(O)[C@H]3Cc4ccc(O)c5c4[C@@]2(CCN3CC2CC2)[C@H]1O5` [naltrexone], the Protein binding ([3]; in vivo) is listed as “approximately 21%” and the Oral bioavailability ([3]; oral) is listed as 5-40%.
